# Columns and labels:
# [1] = test system: IMQ-induced psoriatic inflammation; assay: IMQ-induced psoriatic inflammation model, #1 animal experiment (10 days); type: in vivo, Balb/c mice; conditions: for erythema, scaling, and thickness in lesional skins: photographic observation
# Description: Balb/c mice were topical treated with imiquimod (IMQ) and with control cream, ASC-J9 or clobetasol for consecutive 10 days. (A) Schematic schedule was illustrated. Photographic observations in each group were shown at day 0 (B), day 5 (C) and day 10 (D).
# Balb/c mice were topical treated with imiquimod (IMQ) and with control cream, ASC-J9 or clobetasol for consecutive 10 days. (A) The severity of inflammatory responses on the skin was assessed on the basis of the Psoriasis Area Severity Index. (B) Ten days after treatment, the mice were sacrificed and their skin thickness was measured with vernier caliper to assess the severity of the psoriatic responses. (C) Expession of cytokine genes in mouse skin after 10 day treatment by RT-qPCR. (D) H&E staining of lesional skin after 10 day treatment. *: p<0.05; **: […]; ns: not significant.
# (§1) Animal Model of Psoriatic Inflammation: 30 or 40 mg of 5% IMQ gel (Aldara™) was smeared on the shaved backs of Balb/c mice each day for 5 or 10 days. The severity of the skin's inflammatory response was assessed on the basis of the Psoriasis Area Severity Index (PASI) as described. Briefly, the three parameters of psoriasis responses—erythema, scaling, and skin thickness—were scored independently on a scale from 0 to 4 as follows: 0: none; 1: slight; 2: moderate; 3: marked; and 4: very marked. By adding the scores from these three parameters, the severity of the response was measured using the cumulative score from 0 to 12. At the end of the experiment, the mice were sacrificed for measurement of skin thickness with vernier caliper. Group Assignments and Dose Levels of animal studies are described as follows:
# (§2) The mice were (1) photoed for evaluation and analyzed (2) Psoriasis Area Severity Index (PASI); (3) Skin thickness measurement. We selected the sample in experiment with better inhibitory effect for further analysis by accessing: (1) H&E staining and (2) inflammatory gene expression including TNF-α, IL-1β, IL-17A, IL-22, IL-23 and IL-31 in lesional tissue by quantitative PCR (RT-qPCR).
# We further evaluated anti-inflammatory effects of J9 on psoriatic inflammation in vivo. First, we compared the effects of J9 control cream, J9 cream and clobetasol on inhibition of IMQ-induced psoriatic inflammation in a 10-day experimental schedule (FIG. 5A). Mice of each group were photoed for evaluation at day 0, day 5 and day 10 (FIGS. 5B, 5C and 5D). […] In control cream group, there were no inhibitory effects observed (FIG. 5B). […] These phenomena were reached most severe at day 5 (FIGS. 5 and 6A). […] The skin thickness were measured at day 10. […] Expression of cytokine genes including TNF-α, IL-1β, IL-17A, IL-22, IL-23 and IL-31 in lesional skin were also analyzed. Of these cytokines, we observed that J9 attenuated IMQ-induced IL-1β expression at day 10 (FIG. 6C).
# [2] = test system: Fit3DC (mouse bone marrow derived dendritic cells, fit3-ligand induced); assay: MTS assay for cell viability (cytotoxicity) on Fit3DC; type: cell-based; conditions: 24 hours, 0 μM to 10 μM tested
# Description: (§3) Cells were treated with different concentration of ASC-J9 and ASC-JM17 for 24 hours. Viability of cells were measured by MTS Assays. *: p<0.05.
# (§4) MTS assay for cell viability: The cell toxicity of test articles is measured by MTS assay. The MTS assay is based on the reduction of the MTS tetrazolium compound by viable cells to generate a colored formazan dye that is soluble in cell culture media. This conversion is thought to be carried out by NAD(P)H-dependent dehydrogenase enzymes in metabolically active cells. The formazan dye is quantified by measuring the absorbance at 490-500 nm. The non-toxic dose will be applied for further assays.
# (§5) Cell culture: Mouse bone marrow derived dendritic cells (BMDC) and bone marrow derived macrophages (BMDM) were generated from mouse bone marrow cells. Briefly, dendritic cells can be generated by two induction procedures. Bone marrow cells can be induced into myeloid DCs called GMDC with GM-CSF and IL-4 for 10 days, while a mixed types of DCs including myeloid and plasmacytoid DCs called Fit3DC can be generated by induction with fit3-ligand for 10 days. […]
# (§6) The goal of this example is to evaluate the anti-inflammatory abilities of J9 and JM17 on psoriatic inflammation in vitro and in vivo. To find the safety doses of J9 and JM17 for in vitro study, cytotoxicity of J9 and JM17 were measured by MTS assay. […]
# [3] = test system: R848 induced cytokine expression in mouse splenocytes; assay: R848 induced cytokine expression in mouse splenocytes by RT-qPCR; type: cell-based; conditions: 1 μM pre-treatment 1 hr, R848 6 hrs
# Description: Mouse splenocytes were pre-treated with 1 μM of ASC-J9 or ASC-JM17 for 1 hour and then TLR ligand, R848 were added for 6 hours. Expression of mouse cytokine genes were measured by RT-qPCR. *: p<0.01.
# (§7) Analysis of gene expression: Total RNA was purified from cells using Isol-RNA Lysis Reagent (5 PRIME GmbH, Hilden, Germany) according to the manufacturer's protocol. Reverse-transcription was performed using the QuantiNova® Reverse Transcription Kit (QIAGEN™) and oligo-dT primers for first-strand cDNA synthesis. Quantitative PCR was performed with gene-specific primers (see appendix) using LightCycler480 detection system (Roche Diagnostics GmbH, Penzberg, Germany) and QuantiNova® SYBR Green RT-PCR Kit for gene expression analysis. The level of mRNA expression was normalized to that of GAPDH.
# (§8) Anti-inflammatory effects of J9 and JM17 for inflammatory cytokine including TNF-α, IL-1β, IL-17A, IL-22, IL-23 and IL-31 induced by TLR ligand in various immune cells including mouse splenocytes, mouse bone marrow derived dendritic cells and bone marrow derived macrophages were analyzed by quantitative PCR (RT-qPCR).
# (§9) We also evaluate anti-inflammatory effects of J9 and JM17 on mouse splenocytes and bone marrow derived macrophages. Mouse splenocytes were pre-treated with J9 and JM17 for 1 hr and TLR ligand, R848, were then added for 6 hrs.
# [4] = test system: inflammatory cytokine induced cytokine expression in dendritic cells (GMDC); assay: TNF-α or IL-1β induced cytokine expression in GMDC by RT-qPCR; type: cell-based, mouse; conditions: GMDC pre-treated 1 hr, then TNF-α or IL-1β for 24 hrs
# Description: Dendritic cells were pre-treated with different concentration of ASC-J9 and ASC-JM17 for 1 hour and then inflammatory cytokine TNF-α or IL-1β were added for 24 hours. Expression of mouse cytokine genes was measured by RT-qPCR. *: p<0.05; ns: not significant.
# (§10) Cell culture: Mouse bone marrow derived dendritic cells (BMDC) and bone marrow derived macrophages (BMDM) were generated from mouse bone marrow cells. Briefly, dendritic cells can be generated by two induction procedures. Bone marrow cells can be induced into myeloid DCs called GMDC with GM-CSF and IL-4 for 10 days, while a mixed types of DCs including myeloid and plasmacytoid DCs called Fit3DC can be generated by induction with fit3-ligand for 10 days. To generate BMDMs, bone marrow cells are induced into BMDM by 30% L929 conditioned medium for 7 days.
# as §7, §8
# To evaluate the anti-inflammatory effects of J9 and JM17 in vitro, GMDC were pre-treated with J9 and JM17 for 1 hr and stimulated with the inflammatory cytokine, TNF-α or IL-1β[…]for 24 hrs. Expression of cytokines including TNF-α, IL-1β, IL-17A, IL-22, IL-23, and IL-31 were measured by RT-qPCR. […] Expression of IL-17A was not induced by TNF-α or IL-1β. […]
# [5] = test system: R848 induced cytokine expression in mouse bone marrow derived macrophages (BMDM); assay: R848 induced cytokine expression in bone marrow derived macrophages by RT-qPCR; type: cell-based; conditions: 1 μM pre-treatment 1 hour, R848 6 hours
# Description: Macrophages were pre-treated with 1 μM of ASC-J9 or ASC-JM17 for 1 hour and then TLR ligand, R848 were added for 6 hours. Expression of mouse cytokine genes were measured by RT-qPCR. *: p<0.01; ns: not significant.
# as §10, §7, §8, §9
# [6] = test system: IMQ-induced psoriatic inflammation; assay: IMQ-induced psoriatic inflammation model, #2 animal experiment (5 days); type: in vivo, Balb/c mice; conditions: for IMQ-induced inflammation: photographic observation
# Description: Balb/c mice were topical treated with imiquimod (IMQ) and with control cream, different dose of ASC-J9 for consecutive 5 days. (A) Schematic schedule was illustrated. Photographic observations in each group were shown at day 0 (B), day 5 (C).
# Balb/c mice were topical treated with imiquimod (IMQ) and with control cream, different dose of ASC-J9 for consecutive 5 days. (A) The severity of inflammatory responses on the skin was assessed on the basis of the Psoriasis Area Severity Index. (B) Five days after treatment, the mice were sacrificed and their skin thickness was measured with vernier caliper to assess the severity of the psoriatic responses. […]
# as §1, §2
# To further understand the therapeutic effects of different concentration of J9 cream, 0.5% J9 (2 mg/cm^2 and 6 mg/cm^2), 0.1% J9 (10 mg/cm^2) and 0.05% J9 cream(2 mg/cm^2) were used to evaluate therapeutic effects on IMQ-induced psoriatic inflammation in a five-day experimental schedule (FIG. 7A). Mice of each group were photoed for evaluation at day 0 and day 5 (FIGS. 7B and 7C). […] PASI score, skin thickness and gene expression of lesional skin were also measured.
# [7] = test system: GMDC (mouse bone marrow derived myeloid dendritic cells); assay: MTS assay for cell viability (cytotoxicity) on GMDC; type: cell-based; conditions: 24 hours, 0 μM to 10 μM tested
# Description: as §3, §4, §5, §6
# [8] = test system: artemin (ARTN) expression in keloid patient derived fibroblasts 256K and 268K; assay: ARTN mRNA expression in keloid patient derived fibroblasts by qPCR; type: cell-based, human; conditions: keloid fibroblasts 256K and 268K, 24 hr treatment, mRNA by qPCR vs GAPDH
# Description: Two keloid patient derived fibroblasts named 256K and 268K were treated with ASC-J9 for 24 hr. The cells were then harvested and mRNA expression of ARTN and GAPDH were determined by qPCR.
smiles,measurement,setting,value
"C[C@H]1C[C@H]2[C@@H]3CCC4=CC(=O)C=C[C@]4(C)[C@@]3(F)[C@@H](O)C[C@]2(C)[C@@]1(O)C(=O)CCl [clobetasol, reference compound]",skin thickness,"[1]; clobetasol 0.05% 8 mg/cm^2, day 10, compared to sham control group",reduced skin thickness compared to sham control group
same,"IMQ-induced erythema, scaling and increase of skin thickness in lesional skin","[1]; clobetasol 0.05% 8 mg/cm^2 topical daily, after 5 day treatment",strongly inhibited
COc1ccc(/C=C/C(=O)CC(=O)/C=C/c2ccc(OC)c(OC)c2)cc1OC [ASC-J9],non-toxic doses (cells resistant up to),[2],up to 10 μM
same,R848 induced IL-1β expression,[3],significantly inhibited
same,R848 induced IL-17A expression,[3],significantly inhibited
same,R848 induced IL-22 expression,[3],significantly inhibited
same,R848 induced TNF-α expression,[3],significantly inhibited
same,"erythema, scaling, and thickness in lesional skins","[1]; 0.5% J9 cream 2 mg/cm^2 topical daily, after 5 day treatment",significantly reduced
same,"erythema, scaling, and thickness in lesional skins","[1]; 0.5% J9 cream 10 mg/cm^2 topical daily, after 5 day treatment",significantly reduced
same,IMQ-induced increase of skin thickness,"[1]; J9 2 mg/cm^2, measured at day 10 with vernier caliper",significantly inhibited
same,Psoriasis Area Severity Index (PASI) score,"[1]; J9 2 mg/cm^2 topical daily, at day 3 to day 10",significantly decreased
same,IMQ-induced increase of skin thickness,"[1]; J9 10 mg/cm^2, measured at day 10 with vernier caliper",significantly inhibited
same,Psoriasis Area Severity Index (PASI) score,"[1]; J9 10 mg/cm^2 topical daily, at day 4 to day 6",significantly decreased
same,IMQ-induced IL-1β expression in lesional skin,"[1]; at day 10, RT-qPCR",attenuated
same,thickeness of the epidermis and dermis and keratinocyte proliferation in epidermis and inflammation (H&E staining),[1]; lesional skin after 10 day treatment,reduced
same,TNF-α or IL-1β induced IL-1β expression,[4],significantly inhibit
same,TNF-α or IL-1β induced IL-22 expression,[4],did not attenuate
same,TNF-α or IL-1β induced TNF-α expression,[4],significantly inhibit
same,R848-induced expression of IL-1β,[5],inhibited
same,R848-induced expression of IL-17A,[5],inhibited
same,R848-induced expression of IL-22,[5],inhibited
same,R848-induced expression of IL-31,[5],inhibited
same,R848-induced expression of TNF-α,[5],inhibited
same,IMQ-induced expression of IL-1(3 in lesional skin),"[6]; 0.1% J9 10 mg/cm^2, RT-qPCR",inhibited
same,IMQ-induced expression of TNF-a in lesional skin,"[6]; 0.1% J9 10 mg/cm^2, RT-qPCR",inhibited
same,IMQ-induced inflammation,"[6]; 0.1% J9 10 mg/cm^2, after 5 day treatment",inhibited
same,PASI scores,"[6]; 0.1% J9 10 mg/cm^2, at day 4 to day 5",marked decreased
same,IMQ-induced expression of IL-1(3 in lesional skin),"[6]; 0.5% J9 2 mg/cm^2, RT-qPCR",inhibited
same,IMQ-induced expression of TNF-a in lesional skin,"[6]; 0.5% J9 2 mg/cm^2, RT-qPCR",inhibited
same,IMQ-induced inflammation,"[6]; 0.5% J9 2 mg/cm^2, after 5 day treatment",inhibited
same,PASI scores,"[6]; 0.5% J9 2 mg/cm^2, at day 4 to day 5",marked decreased
same,IMQ-induced expression of IL-1(3 in lesional skin),"[6]; 0.5% J9 6 mg/cm^2, RT-qPCR",inhibited
same,IMQ-induced expression of TNF-a in lesional skin,"[6]; 0.5% J9 6 mg/cm^2, RT-qPCR",inhibited
same,IMQ-induced inflammation,"[6]; 0.5% J9 6 mg/cm^2, after 5 day treatment",inhibited
same,PASI scores,"[6]; 0.5% J9 6 mg/cm^2, at day 4 to day 5",marked decreased
same,non-toxic doses (cells resistant up to),[7],up to 10 μM
same,artemin (ARTN) expression (pruritus marker),[8],down-regulating
